Test results: publication PMC7002685, “Inhibition of vascular calcification by inositol phosphates derivatized with ethylene glycol oligomers” (Nature Communications, 2020)
Where “and” joins values, the source holds several entries; their conditions need not be identical. Equal entries are not always repeated. Where two headings read alike, the source gives them in different places.

Experiments:
[1] = system: THP-1-derived macrophages; assay: Macrophage viability (MTS) with CPP2 and compounds; assay type: cell-based, human
Protocol: (§1) Macrophage accumulation and inflammation coincide with the initial phase of calcification. To this end, VSMCs and THP-1-derived macrophages were exposed to CPP2-supplemented medium. CPP2 prepared from human serum as described previously[61] (Supplementary Figs. 6 and 7), induced a pronounced VSMC monolayer calcification after 48 h, which was decreased by (OEG2)2-IP4 in a dose-dependent fashion, and the effect became significant at 10 µM (Fig. 3e). […] Both H2O2 (proxy for oxidative stress) and tumor necrosis factor-alpha (TNF-α) (proxy for inflammatory response) levels were assayed in the VSMC culture supernatants subsequent to CPP2 treatment with and without compounds[30]. However, no increase in H2O2 nor TNF-α compared to control could be detected in either assay. For the CPP-induced VSMC calcification assay (Fig. 3e) a roughly 10-fold higher concentration of (OEG2)2-IP4 was necessary to achieve similar activity as in the CaP-induced VSMC calcification assay (Fig. 3b). […] In the CaP assay, low inhibitor concentration may be sufficient to inhibit crystal nucleation, whereas for the CPP assay higher inhibitor concentrations may be needed to achieve sufficient particle stabilization by chemisorption of inhibitor onto CPPs. Similar results have been reported for hydrogen sulfide in the context of VC[62],[64]. […] An increase in the TNFα levels in the cell culture supernatants was not observed for (OEG2)2-IP4 with (Fig. 3h) and without (Supplementary Fig. 10) combined CPP2 treatment.
(§2) THP-1 cells were plated at a density of 200,000 cells/well in a 24-well plate, differentiated as stated above, and subsequently treated with or without CPP2 (50 μg Ca/mL) in complete medium with or without test compounds (3, 10, 30, 100 μM) for 24 h at 37 °C, 5% CO2.
(§3) Cell viability was assessed using the MTS assay (CellTiter 96® Aqueous One Solution Cell Proliferation Assay, G3580; Promega, Madison, WI, USA) according to the manufacturer’s instructions. Assays using combined treatment of CPPs or CaP and test compounds were performed in 24-well plates using 20,000 cells per well and assays using test compounds only were performed in a 96-well plate format with a seeding density of 10,000 (VSMC) or 50,000 (THP-1) cells per well, respectively. For controls, cells were treated with respective complete medium only and results were calculated as % of control.

[2] = Macrophage viability (MTS) with CPP2 and compounds; assay type: cell-based, human; details: human, THP-1-derived macrophages, read-out: Macrophage viability (MTS), % of medium control; for viability at 24 h, 3 µM: 3 µM + CPP2, replicates Fig. 3i; for viability at 24 h, 10 µM: 10 µM + CPP2; for viability at 24 h, 30 µM: 30 µM + CPP2; for viability at 24 h, 100 µM: 100 µM + CPP2
Protocol: as §1, §2, §3

[3] = PK in healthy rats, i.v. bolus; assay type: in vivo, male Sprague-Dawley rats; details: for Clobs / plasma concentration / Cmax / AUC(0-t) / MRT: 10 mg/kg i.v.; for half-life / Cmax / Vd / AUC(0-t) / MRT: Sprague-Dawley, rat, iv; for half-life: healthy male rats; for Cmax / Vd / AUC(0-t) / MRT: male; for Vd: read-out: apparent volume of distribution; for MRT: read-out: mean residence time (MRT) (converted)
Protocol: All PK studies in healthy animals were performed by the contract research organization Aphad S.r.l. (Milan, Italy). In all studies, compounds were administered as a salt, and the doses and plasma quantitation refer to the acid form. PK parameters listed in Supplementary Table 13 were derived from measured plasma concentrations applying noncompartmental analysis. Concentration data were extrapolated using the software Analyst™ 6.1 (Applied Biosystems, Foster City, CA, USA), the area under the plasma concentration vs. time curve (AUC) was calculated by linear trapezoidal rule using PK solver 2.0 add-in for Microsoft Excel 2007 (available for download in[83]), and a uniform weight was performed as a first general approach.
To study PK in healthy animals, male Sprague-Dawley rats (Harlan, Correzzana, Italy) were housed up to three per cage with free access to water and standard chow (pellets 12 mm, global diet 2018 certificate, Mucedola, Srl, Settimo Milanese, Italy), and submitted to a 12-h light/dark cycle. Animals were administered i.v. 10 mg/kg of (OEG2)2-IP4 in saline solution i.v. (30 s bolus, 5 mL/kg) and s.c. (5 mL/kg), respectively, in three animals per route and treatment. […] Plasma calcium concentration was determined in pre-dose samples and in t = 30 min samples of both acute and chronic treatments using the calcium colorimetric assay. Blood samples of 100 µL were drawn at several time points from the caudal vein, centrifuged at (3000 × g, 4 °C, 10 min) and stored at −80 °C until analysis by liquid chromatography–tandem mass spectrometry (LC-MS/MS).
The column used for (OEG2)2-IP4 was Kinetex C8 50 × 2.1 mm, 2.6 μm 100 A (Phenomenex, Basel, Switzerland), thermostated at 35 °C. […] Quantitation was carried out as total ion current on the sum of the MRM transitions. […] Samples were agitated 5 min on a […] orbital shaker and centrifuged (16,000 × g, 5 °C, 20 min). […] Samples were then subjected to LC-MS/MS. Rat PK samples were prepared for analysis in an analogous manner as done for spiked samples. The lower limit of quantification (LLOQ) and detection (LOD) in rat plasma for (OEG2)2-IP4 were 25 and 10 ng/mL, respectively. The upper limit of quantification (ULOQ) and detection was 5000 ng/mL.

[4] = 3 µM + CPP2, replicates Fig. 3i, 3 µM

## COCCOCCO[C@@H]1[C@@H](OP(=O)(O)O)[C@H](OCCOCCOC)[C@@H](OP(=O)(O)O)[C@@H](OP(=O)(O)O)[C@H]1OP(=O)(O)O [(OEG2)2-IP4, 4,6-Di-O-(methoxy-diethyleneglycol)-myo-inositol-1,2,3,5-tetrakis(phosphate)]
[1]; [4]
  Macrophage viability (MTS), % of medium control: 98.1% and 100.05%
[1]; 10 µM + CPP2, 10 µM
  Macrophage viability (MTS), % of medium control: 99.92% and 100.59%
[1]; 30 µM + CPP2, 30 µM
  Macrophage viability (MTS), % of medium control: 96.73% and 98.39%
[1]; 100 µM + CPP2, 100 µM
  Macrophage viability (MTS), % of medium control: 94.54% and 99.09%
[2]
  viability at 24 h, 3 µM: 100%
  viability at 24 h, 10 µM: 97.5%
  viability at 24 h, 30 µM: 96.5%
  viability at 24 h, 100 µM: 99.1%
[3]
  Clobs: 7.6 ± 0.5 mL/min/kg
[3]; 10 mg/kg i.v. bolus
  fold increase in plasmatic t1/2 vs IP6: ~10 fold
[3]; 5 min, individual rats Fig. 4a, unit not printed (µM per Fig. 4b), listed as INS-3001
  plasma concentration: 41.12 and 47.02 and 66.21
[3]; 15 min, unit not given, listed as INS-3001
  plasma concentration: 26.41 and 24.63 and 34.38
[3]; 30 min, unit not given, listed as INS-3001
  plasma concentration: 14.11 and 13.26 and 19.44
[3]; 60 min, unit not given, listed as INS-3001
  plasma concentration: 5.04 and 6 and 6.96
[3]; 90 min, unit not given, listed as INS-3001
  plasma concentration: 2.07 and 1.64 and 1.72
[3]; 240 min, unit not given, listed as INS-3001
  plasma concentration: 0.15 and 0.13
[3]; 360 min, unit not given, listed as INS-3001
  plasma concentration: 0.06 and 0.04 and 0.08
[3]; in vivo, 10 mg/kg i.v. bolus
  half-life: 78 ± 32 min
  Vd: 0.234 ± 0.032 L/kg
[3]; in vivo
  Cmax: 52 ± 13 µM
  MRT: 30 min
[3]; in vivo, t = 360 min
  AUC(0-t): 26.1 µM·h

## O=P(O)(O)O[C@H]1[C@H](OP(=O)(O)O)[C@@H](OP(=O)(O)O)[C@H](OP(=O)(O)O)[C@@H](OP(=O)(O)O)[C@H]1OP(=O)(O)O [IP6, myo-Inositol hexakisphosphate]
[1]; [4]
  Macrophage viability (MTS), % of medium control: 102.11% and 100.63%
[1]; 10 µM + CPP2, 10 µM
  Macrophage viability (MTS), % of medium control: 99.19%
[1]; 30 µM + CPP2, 30 µM
  Macrophage viability (MTS), % of medium control: 96.22% and 102.8%
[1]; 100 µM + CPP2
  reduction of macrophage viability: 24%
[1]; 100 µM + CPP2, 100 µM
  Macrophage viability (MTS), % of medium control: 79.04% and 78.68%
[2]
  viability at 24 h, 3 µM: 100%
  viability at 24 h, 10 µM: 98%
  viability at 24 h, 30 µM: 95.5%
  viability at 24 h, 100 µM: 69.2%
[3]
  Clobs: 68.5 ± 21.2 mL/min/kg
[3]; 5 min, individual rats Fig. 4a, unit not printed (µM per Fig. 4b)
  plasma concentration: 13.9 and 17.5 and 6.9 and 6.5 and 5.5 and 5.1
[3]; plasma, 10 mg/kg i.v. bolus
  half-life: 8 ± 2 min
  Vd: 0.958 ± 0.405 L/kg
[3]; plasma
  Cmax: 13 ± 6 µM
  MRT: 14 min
[3]; plasma, t = 30 min
  AUC(0-t): 3.77 µM·h
